Reference: a compilation of properties of binary mixtures (doi:10.1016/j.molliq.2015.11.032)

Assay: xn = mol fraction of the nth substance listed
Details: 101 kPa

Compound | viscosity (296.97 K, x2 = 0.75) | viscosity (301.89 K, x2 = 0.75) | viscosity (306.95 K, x2 = 0.75) | viscosity (312 K, x2 = 0.75) | viscosity (317.18 K, x2 = 0.75) | viscosity (353.18 K, x2 = 0.75) | viscosity (296.84 K, x2 = 0.9412) | electrical conductivity (298.1 K, x2 = 0.9412) | viscosity (301.89 K, x2 = 0.9412) | viscosity (312.13 K, x2 = 0.9412) | electrical conductivity (313.32 K, x2 = 0.9412) | viscosity (317.31 K, x2 = 0.9412) | electrical conductivity (328.03 K, x2 = 0.9412) | viscosity (332.72 K, x2 = 0.9412) | viscosity (353.18 K, x2 = 0.9412)
C[P+](c1ccccc1)(c1ccccc1)c1ccccc1.[Br-] + OCC(O)CO | 2771 mPa·s | 1657 mPa·s | 1002.8 mPa·s | 612 mPa·s | 382 mPa·s | 59.5 mPa·s | – | – | – | – | – | – | – | – | –
[Cl-].c1ccc(C[P+](c2ccccc2)(c2ccccc2)c2ccccc2)cc1 + OCC(O)CO | – | – | – | – | – | – | 1359.8 mPa·s | 0.007 S/m | 943 mPa·s | 459 mPa·s | 0.0174 S/m | 306 mPa·s | 0.0419 S/m | 110.5 mPa·s | 59.49 mPa·s
